The test system of data set [1] is Candida albicans SC5314 strain. The data set is described as follows: Germination inhibition assay (antihyphal growth activity). Type of data set: cell-based. Conditions: for MIC: commercial free fatty acids, gravimetrical quantification, read-out: MIC, antihyphal growth activity of individual free fatty acids. The protocol: The Candida albicans SC5314 strain (Fonzi, W. A. and Irwin, M. Y. 1993. Isogenic strain construction and gene mapping in Candida albicans. Genetics 134: 717-728.) was used to investigate the antihyphal activity of whey cream lipids. This strain was routinely grown as yeast cells at 30° C. in YPD medium (1% yeast extract, 2% peptone, 2% dextrose). Germination was induced by incubating cells in dextrose-free Sabouraud (Difco; Joshi, K. R., Gavin, J. B., and Bremner, D. A. 1973. The formation of germ tubes by Candida albicans in various peptone media. Sabouraudia. 11: 259-262.) at 37° C. in 96-wells microtiter plates (Costar 3595). Briefly, cells from fresh YPD cultures were harvested and washed twice with sterile water. Washed cells were suspended in dextrose-free Sabouraud at a density of 5×10^3 cells/ml and then immediately distributed to microtiter wells containing an equal volume of dextrose-free Sabouraud supplemented with different concentrations of lipids. After 15 h incubation at 37° C. in an atmospheric incubator without agitation, cells were washed and fixed with a fresh 1% formaldehyde solution. The ability of lipids to inhibit germination was determined by microscopic observations.

The subject of data set [2] is Candida albicans ZK3379 strain (CAI-4 HWP1-lacZ). Put plainly: C. albicans HWP1-lacZ beta-galactosidase and XTT assays (kinetics of germination inhibition in hyphae inducing media). Type of data set: cell-based. The conditions noted are these: for germ tube emergence and elongation: all inducing conditions tested (dextrose-free Sabouraud, Lee's, Spider, HFM7), 0-6 h (FIG. 2). How it is done:
Candida albicans ZK3379 strain (CAI-4 HWP1-lacZ; Hogan, D A, Vik A, Kolter R (2004). A Pseudomonas aeruginosa quorum-sensing molecule influences Candida albicans morphology. Mol Microbiol 54: 1212-1223.) was used for beta-galactosidase and XTT assays. Cells from this strain were grown in YPDA at 30° C. to a density of about 1×10^8 cells/ml (hemacytometer). These late exponentially growing cells were then washed twice with water and kept on ice until used. Germination was induced by incubating cells (final density of 5×10^5 cells/ ml) at 37° C. in 2.5 ml of either dextrose-free Sabouraud (Joshi et al., 1973), Lee's (Lee K L, Buckley H R, Campbell C C (1975). An amino acid liquid synthetic medium for the development of mycelial and yeast forms of Candida albicans. Sabouraudia 13: 148-153, Spider (Liu H, Kohler J, Fink Gr (1994). Suppression of hyphal formation in Candida albicans by mutation of a STE12 homolog. Science 266: 1723-1726 or Hypha-Forming Media (Biswas S K, Yokoyama K, Kamei K, Nishimur K, Miyaji M (2001) Inhibition of hyphal growth of Candida albicans by activated lansoprazole, a novel benzimidazole proton pump inhibitor Med Mycol 39: 283-285.), supplemented with FFAs. All lipids were dissolved in ethanol. Assays were performed in duplicate in 24-wells mictotiter plates (Costar 3526) without agitation. After appropriate incubation times (i.e. 0, 2, 4 or 6 h), microtiter plates were centrifuged for 5 min at 2000 rpm (Jouan inc. CR3i) and supernatents, discarded. XTT assays were done immediately and essentially as described (Honraet K, Goetghebeur E, Nelis H J (2005). Comparison of three assays for the quantification of Candida biomass in suspension and CDC reactor grown biofilms. J Microbiol Methods 63: 287-295). For beta-galactosidase assays, microtiter plates were frozen at −80° C. and processed later as described (Kippert F (1995). A rapid permeabilization procedure for accurate quantitative determination of beta-galactosidase activity in yeast cells. FEMS Microbiol Lett 128: 201-206; Hogan et al., 2004) but directly in microtiters plates. Absorbances were measured in 96-well microtiters plates using a microtiter plate reader (Microplate Reader MR600), equipped with filters of 410 nm (beta-galactosidase) and 490 nm (XTT), respectively.
As inhibition of germination of C. albicans by molecules could be the result of early and/or late blocking events, a more comprehensive analysis of the activity of free fatty acids was performed using multiple time points and other germ tube inducing media. Therefore, germination was monitored at 0, 2, 4 and 6 h in dextrose-free Sabouraud, Lee's, Spider and HFM7 (i.e. serum) media using the C. albicans HWP1-lacZ assay: beta-galactosidase measurements should reflect the morphological change from yeast cells to hyphal growth (Hogan et al., 2004). beta-galactosidase results were normalized using the XTT assay (Honraet et al., 2005) to correct for biomass increase. Microscopic observations of cells after 6 h incubation are also presented for each inducing conditions and correlated with beta-galactosidase data (FIG. 2).
In general terms: Tetrazolium dyes change colour on reduction, which living cells bring about.

For data set [3], the system named is mammalian cells. The data set is described as follows: Toxicity for mammalian cells in vitro. Type of data set: cell-based. The conditions noted are these: thousand fold less concentrated solution than 10 mM; Bergsson et al., 2001; data not shown.
The subject of data set [4] is C. albicans yeast cells. The conditions noted are these: 10 mM; cited from earlier work.
In data set [5] the test system is A. fumigatus. Put plainly: Antifungal assay against A. fumigatus (optical density at 630 nm). Type of data set: cell-based. The conditions noted are these: Aspergillus fumigatus; Sabouraud, 30° C., 40 h; commercial FFA. The protocol:
(§1) Fractionation of Blackcurrant Seed Oil. Journal of the American Oil Chemists Society 65: 755-760). […] Under constant stirring, the mixture was heated to 75° C., or until it became clear, and then cooled slowly to 2° C. After completion of urea crystallization at 2° C. (15 h), the UFFA enriched methanol phase was separated from the urea crystals by centrifugation (5 min) at 1000×g. […] Yields were determined gravimetrically. […] UV detection was used to monitor effluent at 215 nm. Water (10 ml) was added to each of the 45 collected HPLC fractions, and they were then extracted three times with hexane (3×10 ml). […] Antifungal assay using commercial FFA were done in quadruplicates. The antifungal activity was evaluated in 96-well microtiter plates (Costar 3595) using Sabouraud as incubating medium for A. fumigatus and dextrose-free Sabouraud for C. albicans. Spores of A. fumigatus (Jeanine Joly, Université de Montréal) were germinated at 25° C. on slant agar Sabouraud media. They were harvested by washing vigorously slant cultures with 5 ml of 0.9% NaCl. Coarse debris were removed by filtrating the Aspergillus spores suspension through a sterile cotton plugs inserted into a Pasteur pipet. Monodisperse spores suspensions were obtained following brief sonications in a water bath sonicator (Branson 1210). […] Blastospores of the C. albicans SC5314 strain were prepared as for germination inhibition assays (see above). […] Wells were washed three times with Sabouraud before optical reading.

The subject of data set [6] is C. albicans SC5314 strain. Put plainly: Antifungal assay against C. albicans (optical density at 630 nm). It is filed as cell-based, Candida albicans. The conditions noted are these: dextrose-free Sabouraud, 37° C., commercial FFA. How it is done: as §1
Data set [7] concerns C. albicans reporter strain ZK3379 (HWP1-lacZ). The conditions noted are these: for Relative beta-galactosidase expression (filamentous growth): 18 h, 37° C., percentage of control cultures without fatty acids. How it is done: The effects of fatty acids gamma-linolenic acid and alpha-linolenic acid on filamentous growth of Candida albicans were determined in a filamentation assay. C. albicans reporter strain ZK3379 (HWP1-lacZ; Hogan et al., 2004) was propagated in yeast extract-peptone-dextrose (YPD) for 24 h at 30° C. Prior to the assay, cells were washed twice with phosphate-buffered saline (PBS 1×). Flasks (125 ml) containing 10 ml of prewarmed RPMI 1640/20 mM MOPS (pH 7.0) were inoculated with washed cells at a final concentration of 10^6 cells per ml. Working solutions of fatty acids (25 mM and 6.25 mM) were prepared freshly in ethanol 70%. Fatty acids were diluted in medium at final concentrations of 100 μM and 25 μM. An equal volume (40 μl) of ethanol 70% was added to control cultures. In all cultures, the final concentration of ethanol was 0.4% (v/v). Flasks were incubated at 37° C. for 18 h with shaking (ca. 200 RPM). Cells were collected by filtration (Millipore, 0.45 μm) and washed with PBS 1×. beta-galactosidase was assayed according to the method of Rose and Botstein (1983), where crude protein extracts are prepared and the activity is normalized to the amount of protein assayed. Relative amounts of beta-galactosidase activity were used as a measure of the amount of filamentous growth.

Data set [8] is described as follows: in vitro. Conditions: human, Toxicity (TC50) PBMCs. The protocol:
(§2) Cytotoxicity was evaluated using Peripheral Blood Mononuclear cells (PBMC) of volunteers donors (Royal Victoria Hospital, Montreal). These cells were purified by the ficoll-Paque PLUS according to the manufacturer (Amersham-Bioscience). PBMC were used at a density of 100 000 cells/ml in RPMI 1640 (Sigma) supplemented with 10% heat-inactivated fetal bovine serum, 0.3 g/L of L-glutamine, 2 g/L sodium carbonate, 100 U/ml of penicillin and 100 μg/ml of streptomycin (Sigma). Assays were done in 96-well microtiter plates (Costar 3595) and the cytotoxicity was evaluated after 24 hours of incubation at 37° C. in a 5% CO2 atmospheric incubator using the LDH Cytotoxicity detection kit, according to the manufacturer (Roche Diagnostic). […] FFA were diluted in ethanol (96%) and no more than 1% ethanol (final concentration) was used in assays. Ethanol (1%) was used as negative control.
(§3) This method measures the release of lactate dehydrogenase (LDH) from the cytosol of damaged cells into the supernatant (Roche Diagnostic).

The subject of data set [9] is Peripheral Blood Mononuclear cells (PBMC). The data set is described as follows: in vitro. The conditions noted are these: human, 24 h. How it is done: as §2, §3
Setting [10] is: Candida albicans, SC5314, complete inhibition of germination, 15 h, 37° C.
Where [11] appears, read: Candida albicans, SC5314, same MIC in μg/ml (in brackets).
[12] abbreviates: complete inhibition of germination, 15 h, 37° C.

The values below come from US20080075786A1, “Antimicrobial agents derived from cream” (Universite de Montreal, priority 2006, published 2008).

Like-named read-outs stand apart in the source and are kept apart here.

One may read the MIC as the lowest concentration that inhibits growth of the organism. For the molecule `CCCCCCCCCCCC(=O)O` [12:0, lauric acid], the MIC in data set [1] (setting [10]) was determined as 9 µM; in data set [1] (setting [11]), 1.8 µg/mL; in [1] (setting [12]), 9 µM. For the same molecule, the “germ tube emergence and elongation” value in data set [2] is “completely inhibited the emergence of germ tubes”. Besides, the “toxicity for mammalian cells in vitro” value in [3] was “not toxic”. Also, the “killing C. albicans yeast cells” value in [4] is “highly active”.

In general, IC50 refers to the concentration needed to halve the response being measured. What is called CC50 is the concentration at which the toxic effect on the cells reaches its halfway point. A high value points to lower toxicity to the cells. With `CCCCC/C=C\C/C=C\C/C=C\CCCCC(=O)O` [gamma-linolenic acid (C18:3n-6), gamma-linolenic acid], the IC50 was determined as 13.4 µM in data set [5] and 2.34 µM in [6] (Candida albicans, SC5314, 40 h). Besides, the “Relative beta-galactosidase expression (filamentous growth)” value in [7] (25 μM) is recorded as 5.9 (±6.8) %; in data set [7] (100 μM), 0.5 (±0.7) %. In addition, in data set [7] (100 μM, RPMI 1640/20 mM MOPS (pH 7.0), HWP1-LacZ strain), the “germination of C. albicans” value is on record as “completely inhibited”. The “antifungal activity in RPMI 1640/20 mM MOPS media” value in data set [7] (100 μM, data not shown) is listed as “not detected”. Also, half-maximal cytotoxicity in data set [8] (CC50 at 24 h) was put at 41 µM.

For `CCCC/C=C\CCCCCCCC(=O)O` [Myristoleic acid (C14:1n-5), myristoleic acid], the MIC in data set [1] (setting [10]) turned out to be 9 µM; in data set [1] (setting [11]), 2.04 µg/mL; in data set [1] (setting [12]), 9 µM. For the same molecule, the “appearance of germ tubes” value is on record as “partially inhibited the appearance of germ tubes” in [2] (Spider and HFM7 media); “strongly inhibited the appearance of germ tubes” in data set [2] (dextrose-free Sabouraud and Lee's inducing media). In addition, the IC50 is 192 µM in [5]; 82 µM in [6] (Candida albicans, SC5314, 40 h); 81.9 ± 9.2 µM in [6] (40 h). The CC50 at 24 h in data set [8] was 72 µM. The molecule further displayed a CC50 in [9] of 71.9 ± 6.2 µM.

Turning to `CCCCCCCCCC(=O)O` [Capric acid (C10:0), capric acid], the results for the MIC in data set [1] (setting [10]) and in data set [1] (setting [11]) were 9 µM and 1.55 µg/mL, respectively. Further, the “activity at inhibiting C. albicans germination” value in data set [1] (individual commercial free fatty acids, highest concentration used 81 μM) is recorded as “similarly active to lauric acid”. Moreover, the “germ tube emergence and elongation” value in data set [2] is on record as “completely inhibited the emergence of germ tubes”. Further, the IC50 in [5] was determined as 127 µM; in data set [6] (Candida albicans, SC5314, 40 h), 182 µM. The molecule further had a CC50 at 24 h in data set [8] of 1430 ± 32 µM. In addition, in data set [9], the “TC50, PBMC” value was “about 1.4 mM”. Further, in data set [3], the “toxicity for mammalian cells in vitro” value is listed as “not toxic”. Further, the “killing C. albicans yeast cells” value in data set [4] is listed as “highly active”.
